{
  "source": "paper PMC5733122",
  "about": "“Purification, Characterization, and Mode of Action of Pentocin JL-1, a Novel Bacteriocin Isolated from Lactobacillus pentosus, against Drug-Resistant Staphylococcus aureus” (BioMed Research International, 2017)",
  "key": {"[1]": {"tested_on": "Lactobacillus acidophilus ATCC314", "assay": "Agar-well diffusion test", "type": "cell-based", "protocol": "(§1) The intestinal tracts of C. punctatum (grey carpet shark) were dissected and homogenized in 20 mL saline solution under sterile conditions and were then plated in serial dilutions in deMan, Rogosa, and Sharpe (MRS) medium. The plates were incubated aerobically at 30°C for 24 h. Several colonies were picked at random and incubated again in MRS broth. For screening for bacteriocin-producing strains, the agar-well diffusion test was used to detect antimicrobial activity in cell-free supernatants (filtered through a 0.22 μm Millipore filter) obtained by centrifugation (10,000g, 30 min, 4°C) after 18, 36, 60, and 72 h incubation. The Gram-positive strain MRSA GIM 1.771 and the Gram-negative strain Escherichia coli O157:H7 GIM 1.707 were used as indicator strains. Before the experiments, the indicator strains were grown to 10^6 CFU/mL. Then, 1 mL of the culture was mixed with 100 mL soft agar medium and poured onto individual Petri dishes. Subsequently, 8 mm diameter wells were punched onto the plates, and each well was filled with 100 μL of the cell-free supernatants under sterile conditions. The plates were incubated overnight at their respective optimum temperatures, and the clear zones of inhibition were measured in diameter and indicated the presence of antimicrobial activity. In our study, all bacteria culture media and chemical reagents were supplied by Sigma-Aldrich (USA).\n(§2) The agar-well diffusion test as described previously was used to detect the antimicrobial activity of the purified pentocin JL-1 (15 μg/mL, pH 5.5). LAB strains were grown in MRS broth at 30°C for 16 h. Other Gram-positive indicator strains were grown in Tryptone Soy Broth (TSB) medium at 37°C and the Gram-negative indicator strains were grown in Luria-Bertani broth medium at 37°C."}, "[2]": {"tested_on": "Listeria monocytogenes ATCC19112", "assay": "Agar-well diffusion test", "type": "cell-based", "protocol": "as §1, §2"}, "[3]": {"tested_on": "Enterococcus faecalis ATCC51575", "assay": "Agar-well diffusion test", "type": "cell-based", "protocol": "as §1, §2"}, "[4]": {"tested_on": "Multidrug-resistant S. aureus 3", "assay": "Agar-well diffusion test", "type": "cell-based", "settings": "15 μg/mL, pH 5.5, pork isolate resistant to FOX, TET, GEN, mean ± SD, triplicate", "protocol": "as §1, §2"}, "[5]": {"tested_on": "Bacillus subtilis CGMCC1.1627", "assay": "Agar-well diffusion test", "type": "cell-based", "protocol": "as §1, §2"}, "[6]": {"tested_on": "Vibrio parahaemolyticus GIM1.306", "assay": "Agar-well diffusion test", "type": "cell-based", "protocol": "as §1, §2"}, "[7]": {"tested_on": "Multidrug-resistant S. aureus 2", "assay": "Agar-well diffusion test", "type": "cell-based", "settings": "15 μg/mL, pH 5.5, pork isolate resistant to FOX, GEN, mean ± SD, triplicate", "protocol": "as §1, §2"}, "[8]": {"tested_on": "Multidrug-resistant S. aureus 5", "assay": "Agar-well diffusion test", "type": "cell-based", "settings": "15 μg/mL, pH 5.5, pork isolate resistant to FOX, TET, GEN, C, mean ± SD, triplicate", "protocol": "as §1, §2"}, "[9]": {"tested_on": "Multidrug-resistant S. aureus 6", "assay": "Agar-well diffusion test", "type": "cell-based", "settings": "15 μg/mL, pH 5.5, pork isolate resistant to CIP, FOX, C, SXT, TET, GEN, mean ± SD, triplicate", "protocol": "as §1, §2"}, "[10]": {"tested_on": "Pseudomonas aeruginosa CGMCC1.1785", "assay": "Agar-well diffusion test", "type": "cell-based", "protocol": "as §1, §2"}, "[11]": {"tested_on": "Multidrug-resistant S. aureus 1", "assay": "Agar-well diffusion test", "type": "cell-based", "settings": "15 μg/mL, pH 5.5, pork isolate resistant to FOX, TET, mean ± SD, triplicate", "protocol": "as §1, §2"}, "[12]": {"tested_on": "Multidrug-resistant S. aureus 4", "assay": "Agar-well diffusion test", "type": "cell-based", "settings": "15 μg/mL, pH 5.5, pork isolate resistant to FOX, TET, C, mean ± SD, triplicate", "protocol": "as §1, §2"}, "[13]": {"tested_on": "Micrococcus luteus CGMCC1.2299", "assay": "Agar-well diffusion test", "type": "cell-based", "protocol": "as §1, §2"}, "[14]": {"tested_on": "Lactobacillus casei ATCC393", "assay": "Agar-well diffusion test", "type": "cell-based", "settings": "purified pentocin JL-1 15 μg/mL, pH 5.5, inhibition zone diameter class incl. 8 mm well", "protocol": "as §1, §2"}, "[15]": {"tested_on": "MRSA GIM 1.771", "assay": "Minimal inhibitory concentration (MIC), 96-well microtiter plates", "type": "cell-based, Staphylococcus aureus", "settings": "around 2 × 10^6 CFU/mL, 37°C, 24 h, 100% growth inhibition by absorbance at 540 nm, triplicate", "protocol": "Additionally, the minimal inhibitory concentration (MIC) of pentocin JL-1 against MRSA GIM 1.771 was tested. Overnight culture of MRSA GIM 1.771 with the concentration of around 2 × 10^6 CFU/mL was collected and 50 μL of each was grown in 96 well-microtiter plates (Bio-Rad, USA) with different concentrations of pentocin JL-1, ranging from 50 ng/mL to 15 μg/mL, at 37°C for 24 h. Each concentration was done in triplicate. The MIC represents the bacteriocin concentration at which 100% of growth is inhibited measured by the absorbance at 540 nm."}, "[16]": {"tested_on": "MRSA GIM1.771", "assay": "Agar-well diffusion test", "type": "cell-based, Staphylococcus aureus", "settings": "pH 5.5", "protocol": "as §1, §2\nThe residual antibacterial activities of the above samples were calculated using the agar-well diffusion test with MRSA GIM 1.771 as the indicator strain. […] Lyophilized pentocin JL-1 dissolved in 0.05% (w/v) acetic acid at 15 μg/mL with pH 5.5 was used as a control in all assays."}, "[17]": {"tested_on": "MRSA GIM 1.771", "assay": "Time-killing kinetics, viable cell counts", "type": "cell-based, Staphylococcus aureus", "settings": "for instantaneous killing action, log10 reduction: at 0 h, viable cell counts on TSB agar, exponential-phase culture, 37°C", "protocol": "The bacteriostatic or bactericidal mode of action of pentocin JL-1 was tested as described previously by Zhu et al. with some modifications. MRSA GIM 1.771 was cultivated to the exponential phase in 100 mL of TSB culture medium. The lyophilized purified pentocin JL-1 dissolved in 0.05% (w/v) acetic acid was added to the cultures at a final concentration of 1x MIC and the same volume of 0.05% (w/v) acetic acid was added to the aforementioned media as a control. Samples were incubated at 37°C and bacterial suspensions were taken each hour for 24 h, and the absorbance was measured at OD600. In addition, the viable cell counts on TSB agar medium after the addition of 1x MIC, 2x MIC, and 3x MIC of pentocin JL-1 were also quantified every 10 min for 1 h."}, "[18]": {"settings": "purified pentocin JL-1 15 μg/mL, pH 5.5, inhibition zone diameter class incl. 8 mm well"}},
  "data": [
    {"substance": "VAKVAR [pentocin JL-1, novel bacteriocin produced by Lactobacillus pentosus JL-1, purified by four-step chromatography, molecular mass 2987.23 Da, cationic and hydrophobic peptide]", "values": [
      {"measurement": "inhibitory activity", "setting": "[1]; 15 μg/mL, pH 5.5", "result": "no inhibitory activity"},
      {"measurement": "Antimicrobial activity", "setting": "[1]; [18]", "result": "−"},
      {"measurement": "inhibitory activity", "setting": "[2]; 15 μg/mL, pH 5.5", "result": "inhibited"},
      {"measurement": "Antimicrobial activity", "setting": "[2]; [18]", "result": "++ (++: 15–19)"},
      {"measurement": "inhibitory activity", "setting": "[3]; 15 μg/mL, pH 5.5", "result": "inhibited"},
      {"measurement": "Antimicrobial activity", "setting": "[3]; [18]", "result": "++ (++: 15–19)"},
      {"measurement": "Inhibitor zone", "setting": "[4]", "result": "24.3 ± 0.7", "unit": "mm"},
      {"measurement": "inhibitory activity", "setting": "[5]; 15 μg/mL, pH 5.5", "result": "inhibited"},
      {"measurement": "Antimicrobial activity", "setting": "[5]; [18]", "result": "++ (++: 15–19)"},
      {"measurement": "inhibitory activity", "setting": "[6]; 15 μg/mL, pH 5.5", "result": "no inhibitory activity"},
      {"measurement": "Antimicrobial activity", "setting": "[6]; [18]", "result": "−"},
      {"measurement": "Inhibitor zone", "setting": "[7]", "result": "22.5 ± 1.2", "unit": "mm"},
      {"measurement": "Inhibitor zone", "setting": "[8]", "result": "23.9 ± 1.5", "unit": "mm"},
      {"measurement": "Inhibitor zone", "setting": "[9]", "result": "23.7 ± 0.6", "unit": "mm"},
      {"measurement": "inhibitory activity", "setting": "[10]; 15 μg/mL, pH 5.5", "result": "inhibited"},
      {"measurement": "Antimicrobial activity", "setting": "[10]; [18]", "result": "+ (+: 10–14)"},
      {"measurement": "Inhibitor zone", "setting": "[11]", "result": "23.8 ± 0.8", "unit": "mm"},
      {"measurement": "Inhibitor zone", "setting": "[12]", "result": "22.4 ± 0.6", "unit": "mm"},
      {"measurement": "inhibitory activity", "setting": "[13]; 15 μg/mL, pH 5.5", "result": "inhibited"},
      {"measurement": "Antimicrobial activity", "setting": "[13]; [18]", "result": "++ (++: 15–19)"},
      {"measurement": "Antimicrobial activity", "setting": "[14]", "result": "+++ (+++: 20–25)"},
      {"measurement": "MIC", "setting": "[15]", "result": 7.5, "unit": "µg/mL"},
      {"measurement": "Residual inhibitory activity (%)", "setting": "[16]; Control: untreated pentocin JL-1 15 μg/mL in 0.05% (w/v) acetic acid", "result": 100.00, "unit": "%"},
      {"measurement": "Residual inhibitory activity (inhibition zone diameter, mm)", "setting": "[16]; Control: untreated pentocin JL-1 15 μg/mL in 0.05% (w/v) acetic acid, mean ± SD, triplicate", "result": "23.9 ± 0.7", "unit": "mm"},
      {"measurement": "Antimicrobial activity", "setting": "[16]; agar-well diffusion, purified pentocin JL-1 15 μg/mL, inhibition zone diameter class incl. 8 mm well", "result": "+++ (+++: 20–25)"},
      {"measurement": "instantaneous killing action, log10 reduction", "setting": "[17]; 1x MIC", "result": 1.05, "unit": "log10"},
      {"measurement": "mode of action (bacteriostatic or bactericidal)", "setting": "[17]; 1x, 2x, 3x MIC, viable counts over 1 h", "result": "bactericidal"},
      {"measurement": "instantaneous killing action, log10 reduction", "setting": "[17]; 2x MIC", "result": 2.14, "unit": "log10"},
      {"measurement": "instantaneous killing action, log10 reduction", "setting": "[17]; 3x MIC", "result": 2.21, "unit": "log10"}
    ]}
  ]
}
